From US10709682B2, “Treatment of tinnitus through modulation of chloride co-transporter NKCC1 in the auditory system” (OTOLANUM AG, priority 2011, dated 2020)
Entries after “also recorded” stand apart in the source; their conditions may differ.

Key:
tinnitus [1] = details: Westerberg et al., 1996 (baclofen); Piccirillo et al., 2007 (gabapentin); cited from earlier work
NKCC1 versus KCC2 = details: Blaesse et al., 2009, cited from earlier work
[2] = system: inner hair cell ribbon synapses; test: Count of inner hair cell ribbon synapses after noise or sham exposure and local treatment; assay type: in vivo, rat; details: bumetanide 300 μM local at round window, 2 weeks following noise
Description: Ribbon synapses of inner hair cells were counted. Sections were viewed using an Olympus AX70 microscope equipped with epifluorescence illumination (100× objective, NA=1.35) and a motorized z-axis. Images were acquired using a CCD camera and the imaging soft-ware Cell^F (OSIS GmbH, Münster, Germany). For Otoferlin and CtBP2/RIBEYE immunopositive spot counting on cryo-sectioned cochleae were performed through imaging over a distance of 8 μm with the complete coverage of the IHC nucleus and beyond in an image-stack along the z-axis (z-stack). Typically z-stacks consisted of 30 layers with a z-increment of 0.276 µm, for each layer one image per fluorochrome was acquired. Z-stacks were 3-dimensionally deconvoluted using Cell^F's RIDE module with the Nearest Neighbour algorithm (OSIS GmbH, Müster, Germany). 20 adult female Wistar rats were anaesthetized as described above for the previous experiments. First, auditory brainstem response (ABR) measurements were performed. As in Experiment 2, they were then exposed in a sound attenuation booth for 1.5 hours to a continuous 10 kHz tone at an intensity of 120 dB SPL (Group A; n×10) or sham exposed in the same setting (Group B; n=10). Animals were treated bilaterally right after noise trauma with either artificial perilymph (AP) or bumetanide (Sigma B3023, Lot 027Ko988). […] Ribbon synapses of inner hair cells were counted as in Experiment 2.

[3] = system: KCC2 expression in cochlear tissue; test: Real-time PCR for KCC2 expression in cochlear tissue after noise or sham exposure and local treatment; assay type: in vivo, rat
Description: 20 adult female Wistar rats were anaesthetized as described above for the previous experiments. First, auditory brainstem response (ABR) measurements were performed. As in Experiment 2, they were then exposed in a sound attenuation booth for 1.5 hours to a continuous 10 kHz tone at an intensity of 120 dB SPL (Group A; n×10) or sham exposed in the same setting (Group B; n=10). Animals were treated bilaterally right after noise trauma with either artificial perilymph (AP) or bumetanide (Sigma B3023, Lot 027Ko988). AP was prepared freshly in accordance with Guitton et al., 2003 (140 mM NaCl, 4 mM KCl, 2 mM CaCl2, 2m M MgCl2, 10 mM glucose, 10 mM HePES). Bumetanide (300 μM) was prepared as follows: 50 mg of bumetanide powder was diluted in 6.87 ml AP. This 20 mM stock solution was diluted 1:66 in AP (15.15 μL stock solution and 984.85 μL AP). 5 animals of Group A and 5 animals of Group B received AP (total 10 animals) and 5 animals of Group A and 5 animals of Group B received bumetanide total (10 animals). For the local treatment administration, the fur was removed behind the ears and the bulla exposed in a retro-auricular approach. A small hole was carefully drilled into the bony bulla just above the round window niche (0.6-1 mm in diameter). The mucosa was opened and the region around the round window carefully dried of fluid. Through the hole, a small gel-foam pellet (Gelita Tampon; Braun, Melsungen, Germany) was inserted into the round window niche, 5-8 μl of bumetanide solution or AP were applied on the gel foam by means of a precision pipette with gel loader tips, thus avoiding air bubbles under the gel. […] The hole in the bulla was then covered from the outside with muscular tissue and the wound was sutured with surgical thread (Vicryl, Johnson & Johnson, Norderstedt, Germany). Postoperatively the animals were kept warm with the body temperature being controlled until wake-up. […] For the real-time PCR reaction 12.5 μl of SYBRGreen (QuantiFast Sybr Green, Qiagen), 1 μl Primer Mix, 7.3 μl ddH2O and 4 μl cDNA were used per well. […]

tinnitus [4] = details: cited from earlier work
[5] = system: behavioural correlate of tinnitus; details: chronic tinnitus induced by noise trauma; vigabatrin treatment; cited from earlier work

## NCC(CC(=O)O)c1ccc(Cl)cc1 (stereo not drawn) [baclofen]
Tinnitus [1]
  Effect on tinnitus: no effects at all

## CCCCNc1cc(C(=O)O)cc(S(N)(=O)=O)c1Oc1ccccc1 [bumetanide]
NKCC1 versus KCC2; Payne et al., 2003
  Affinity for NKCC1 versus KCC2: much higher affinity for NKCC1 than for KCC2
[2]; midbasal and basal cochlear turns
  Decline of inner hair cell ribbons in noise exposed ears that received bumetanide versus sham exposed: not significant
[2]; noise exposed ears, p<0.02
  Inner hair cell ribbon numbers in noise exposed ears, bumetanide versus AP treated: significant difference; also recorded: reduced loss of inner hair cell ribbons
[3]; noise exposed ears (10 kHz, 120 dB SPL, 1.5 h), bumetanide 300 μM local at round window, 15 days following treatment
  KCC2 expression (down-regulation) in noise exposed, bumetanide treated ears versus sham exposed ears: No such down-regulation
[3]; noise exposed ears, bumetanide 300 μM local at round window, 15 days following treatment, p<0.01
  KCC2 expression in noise exposed ears, bumetanide treated versus AP treated: statistically significant difference; also recorded: statistically significantly different
[3]; sham exposed ears (Group B), bumetanide 300 μM, 5-8 μl on gel foam at round window niche, cochlear tissue 15 days following treatment
  KCC2 expression, bumetanide versus AP treated, sham exposed ears: no difference

## NS(=O)(=O)c1cc(C(=O)O)c(NCc2ccco2)cc1Cl [furosemide]
NKCC1 versus KCC2
  Potency of blocking NKCC1 versus KCCs: approximately equal potency
Tinnitus [4]; administered at high doses
  Induction of tinnitus and hearing loss: induce temporary tinnitus and hearing loss
Tinnitus [4]; patients, effects only for tinnitus of cochlear rather than central origin
  Suppression of tinnitus: suppress tinnitus, albeit only in a reversible fashion and not in all patients

## NCC1(CC(=O)O)CCCCC1 [gabapentin]
Tinnitus [1]
  Effect on tinnitus: no effects at all

## C=CC(N)CCC(=O)O (stereo not drawn) [vigabatrin]
[5]
  Behavioural correlate of tinnitus: reversibly suppressed
